Values quoted from earlier work as cited in publication PMC8395767, “Worsening of the Toxic Effects of (±)Cis-4,4′-DMAR Following Its Co-Administration with (±)Trans-4,4′-DMAR: Neuro-Behavioural, Physiological, Immunohistochemical and Metabolic Studies in Mice” (International Journal of Molecular Sciences, 2021).

How the values were obtained:
5-HT2A = biological target: 5-HT2A; parameters: method as in PMID 29908239; conditions: read-out: Ki at 5-HT2A receptor; cited from earlier work
5-HT2C = biological target: 5-HT2C; parameters: method as in PMID 29908239; conditions: read-out: Ki at 5-HT2C receptor; cited from earlier work
DAT/SERT = test system: DAT/SERT; parameters: method as in PMID 30776375; conditions: cited from earlier work
[1] = test system: dopamine (DAT) transporter; parameters: method as in PMID 30776375, PMID 25331619, PMID 29908239; conditions: in vitro; cited from earlier work
[2] = test system: noradrenaline (NET) transporter; parameters: method as in PMID 30776375, PMID 25331619, PMID 29908239; conditions: in vitro; cited from earlier work
serotonin transporters = test system: serotonin transporters; parameters: method as in PMID 30776375, PMID 25331619, PMID 29908239; conditions: in vitro; cited from earlier work
rat brain synaptosomes = test system: rat brain synaptosomes; parameters: method as in PMID 24841869; conditions: compared with d-amphetamine, aminorex and 4-MAR; cited from earlier work

Cc1ccc(C2OC(N)=NC2C)cc1 (stereo not shown) [4,4′-DMAR, 4-Methyl-5-(4-methylphenyl)-4,5-dihydrooxazol-2-amine]
Ki (5-HT2A): ~8.9 µM
Ki (5-HT2C): ~11 µM
DAT/SERT ratio (DAT/SERT): 0.4
Inhibitory activity on dopamine transporter (DAT) [1]: potent inhibitory activity
Inhibitory activity on noradrenaline transporter (NET) [2]: potent inhibitory activity
Inhibitory activity on serotonin transporters (serotonin transporters): potent inhibitory activity
Release of 5-HT from rat brain synaptosomes (rat brain synaptosomes): most potent releaser
